The results in this text go back to patent US4579822A (priority 1983, dated 1986).

As a reminder, the Km is the substrate concentration at which the rate is half of its maximum.

Read-outs that look alike come from different tables or passages of the source. Some results are limits rather than exact numbers.

Data set [1] relates to DHAK (II). The data set is described as follows: Substrate specificity of DHAK (II). It is filed as biochemical, Schizosaccharomyces pombe IFO 0354. The following applies: for Relative activity DHAK (II) (substrate): each substrate 1.0 mM, pH 7.5, 25° C., DHA = 100%; for Action of DHAK (II) on substrate (in words): summary of Table 1. The method, then:
(§1) The reaction mixture for measuring the substrate specificity of DHAK consists of 1.0 ml of 0.1M triethanolamine-HCl buffer (pH 7.5), 2.5 mM ATP, 4 mM MgSO4, 0.2 mM NADH, 1.3 mM phosphoenolpyruvate, 6 units of pyruvate kinase, 6 units of lactate dehydrogenase (Boehringer Mannheim GmbH), 0.01 ml of enzyme solution and each substrate (1.0 mM) as shown in Table 1. The reaction is started by adding enzyme solution and measured the decrease in the absorbance at 340 nm at 25° C. The above reaction is represented by the following equations: [drawing 4]

Data set [2] addresses T1, DHAK (I) (Schizosaccharomyces pombe, UniProt O13902).
T1 construct: DHAK (I) and DHAK (II) obtained from Schizosaccharomyces pombe IFO 0354; made in house; host or cells: Schizosaccharomyces pombe IFO 0354 (natural producer, not recombinant); cell extract, DEAE-Sepharose fraction at 0.12 M KCl, then Blue-Sepharose
T1 sequence (O13902 1-580): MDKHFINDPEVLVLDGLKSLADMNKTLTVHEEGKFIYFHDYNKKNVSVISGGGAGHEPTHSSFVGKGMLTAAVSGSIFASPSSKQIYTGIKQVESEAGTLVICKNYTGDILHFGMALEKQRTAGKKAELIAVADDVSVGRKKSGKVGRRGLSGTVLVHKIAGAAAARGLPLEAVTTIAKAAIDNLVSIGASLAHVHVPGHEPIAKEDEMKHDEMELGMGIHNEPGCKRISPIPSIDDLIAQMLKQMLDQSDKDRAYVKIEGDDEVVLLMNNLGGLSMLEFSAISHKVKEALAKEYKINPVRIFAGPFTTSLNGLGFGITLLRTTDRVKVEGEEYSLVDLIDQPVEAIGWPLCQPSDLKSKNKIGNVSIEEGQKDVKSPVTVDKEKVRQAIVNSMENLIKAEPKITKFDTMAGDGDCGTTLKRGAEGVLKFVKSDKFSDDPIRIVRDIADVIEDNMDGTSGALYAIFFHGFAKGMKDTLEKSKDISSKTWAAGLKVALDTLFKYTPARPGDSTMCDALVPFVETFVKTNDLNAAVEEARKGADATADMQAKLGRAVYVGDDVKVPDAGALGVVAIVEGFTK
The data set is described as follows: Substrate specificity of DHAK (I). It counts as biochemical, Schizosaccharomyces pombe IFO 0354. The method, then: as §1

The target in data set [3] is T2, DHAK (II) (Schizosaccharomyces pombe, UniProt O74215).
T2 construct: DHAK (I) and DHAK (II) obtained from Schizosaccharomyces pombe IFO 0354; made in house; host or cells: Schizosaccharomyces pombe IFO 0354 (natural producer, not recombinant); cell extract, DEAE-Sepharose fraction at 0.16 M KCl, then Blue-Sepharose
T2 sequence (O74215 1-591): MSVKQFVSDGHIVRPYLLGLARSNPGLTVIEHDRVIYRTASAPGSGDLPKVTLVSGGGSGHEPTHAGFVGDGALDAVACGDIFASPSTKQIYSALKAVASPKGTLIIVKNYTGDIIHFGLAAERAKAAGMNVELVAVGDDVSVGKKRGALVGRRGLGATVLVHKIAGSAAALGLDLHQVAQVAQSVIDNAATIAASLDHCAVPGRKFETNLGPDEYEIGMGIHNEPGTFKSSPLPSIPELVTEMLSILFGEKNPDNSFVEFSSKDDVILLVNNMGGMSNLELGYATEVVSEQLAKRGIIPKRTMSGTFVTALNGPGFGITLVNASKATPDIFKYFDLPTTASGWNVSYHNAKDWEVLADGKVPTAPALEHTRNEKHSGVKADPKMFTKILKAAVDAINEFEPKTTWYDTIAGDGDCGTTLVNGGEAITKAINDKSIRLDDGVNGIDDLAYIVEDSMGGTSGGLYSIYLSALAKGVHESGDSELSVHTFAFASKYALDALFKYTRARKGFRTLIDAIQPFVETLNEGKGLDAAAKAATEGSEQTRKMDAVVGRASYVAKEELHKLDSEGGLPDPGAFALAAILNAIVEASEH
The data set is described as follows: Specificity of DHAK (II) for phosphate donor. It is filed as biochemical, Schizosaccharomyces pombe IFO 0354. The following applies: for Relative activity DHAK (II) (phosphate donor): Adenosine 5'-triphosphate = 100%. The method, then:
(§2) The reaction is started by adding enzyme solution, and the decrease of the absorbance at 340 nm is measured spectrophotometrically at 25° C. In the blank assay, DHA is excluded from the reaction mixture. One unit of the enzyme activity is defined as the amount of enzyme which catalyzes the formation of 1 μmol NAD^+ in one minute under the above conditions. The above reaction is represented by the following equations: [drawing 3]

The target of data set [4] is T1, DHAK (I). The data set is described as follows: Specificity of DHAK (I) for phosphate donor. It counts as biochemical, Schizosaccharomyces pombe IFO 0354. The following applies: for Relative activity DHAK (I) (phosphate donor): Adenosine 5'-triphosphate = 100%. The method, then: as §2
Data set [5] concerns the target T2, DHAK (II). The data set is described as follows: Specificity of DHAK (II) for divalent metal cations. It counts as biochemical, Schizosaccharomyces pombe IFO 0354. To be noted: for Relative activity DHAK (II) (metal cation): each divalent metal cation 4 mM, MgSO4 = 100%. The method, then: as §2
(§3) Each divalent metal cation (4 mM) was added to the reaction mixture and the activity of the enzyme was measured.

For data set [6], the target named is T1, DHAK (I). The data set is described as follows: Specificity of DHAK (I) for divalent metal cations. It counts as biochemical, Schizosaccharomyces pombe IFO 0354. The following applies: for Relative activity DHAK (I) (metal cation): each divalent metal cation 4 mM, MgSO4 = 100%. The method, then:
as §2, §3

Substrate in data set [7]: Nc1ncnc2c1ncn2[C@@H]1O[C@H](COP(=O)(O)OP(=O)(O)OP(=O)(O)O)[C@@H](O)[C@H]1O
The experiment in a line: Km values of DHAK (I) for substrates and coenzyme. It counts as biochemical, Schizosaccharomyces pombe IFO 0354. To be noted: other: pH 7.5, 25° C.

Substrate in data set [8]: O=CC(O)CO
The experiment in a line: Km values of DHAK (I) for substrates and coenzyme. It counts as biochemical, Schizosaccharomyces pombe IFO 0354. To be noted: other: pH 7.5, 25° C.

Substrate in data set [9]: O=C(CO)CO
The data set is described as follows: purified protein, by the assay type. To be noted: other: pH 7.5, 25° C.

Where [10] appears, read: pH 7.5, read-out: Relative activity DHAK (I) (substrate).
The mark [11] stands for this setting: pH 7.5; read-out: Relative activity DHAK (I) (substrate).
[12] abbreviates: cation 4 mM, summary of Table 3.
Where [13] appears, read: concentration in the reaction mixture.

For `O=CC(O)CO` (racemic) [DL-Glyceraldehyde], in the data set with DHAK (II) [1], the “Relative activity DHAK (II) (substrate)” value was 12% and the “Action of DHAK (II) on substrate (in words)” value is recorded as “slightly”. Besides, the activity at 1000 µM on DHAK (I) [2] (setting [10]) worked out at 27%. The “Action of DHAK (I) on substrate (in words)” value on DHAK (I) [2] (summary of Table 1) is given as “slightly”.
As for `O=C(O)C(O)CO` (racemic) [DL-Glyceric acid], the “Relative activity DHAK (II) (substrate)” value with DHAK (II) [1] worked out at 0%. Further, on DHAK (I) [2] (setting [11]), the activity at 1000 µM was determined as 0%.
As to `CC(O)CO` (centres unmarked) [1,2-Propanediol], the “Relative activity DHAK (II) (substrate)” value in the data set with DHAK (II) [1] is 0%. In addition, the activity at 1000 µM on DHAK (I) [2] (setting [10]) came to 0%.
On to `OCCCO` [1,3-Propanediol], for which the “Relative activity DHAK (II) (substrate)” value in the data set on DHAK (II) [1] was 0%. Besides, the activity at 1000 µM at DHAK (I) [2] (setting [10]) amounted to 0%.
Consider `CC(=O)C(C)O` (centres unmarked) [Acetoin], for which the “Relative activity DHAK (II) (substrate)” value in the data set on DHAK (II) [1] is on record as 0%. In addition, on DHAK (I) [2] (setting [10]), the activity at 1000 µM came to 0%.
For `CC(=O)CO` [Acetol], the “Relative activity DHAK (II) (substrate)” value in the data set on DHAK (II) [1] was found to be 0%. Besides, on DHAK (I) [2] (setting [10]), the activity at 1000 µM was 0%.
For the molecule `Nc1ncnc2c1ncn2[C@@H]1O[C@H](COP(=O)(O)OP(=O)(O)OP(=O)(O)O)[C@@H](O)[C@H]1O` [Adenosine 5'-triphosphate], at DHAK (II) [3], the “Relative activity DHAK (II) (phosphate donor)” value came out at 100%. Further, on DHAK (II) [3] (summary of Table 2), the “Phosphate donor ranking for DHAK (II) (in words)” value is “best phosphate donor”. Besides, on DHAK (I) [4], the “Relative activity DHAK (I) (phosphate donor)” value turned out to be 100%. Besides, the “Phosphate donor ranking for DHAK (I) (in words)” value on DHAK (I) [4] (summary of Table 2) was “best phosphate donor”.
Take `[Ca+2].[Cl-].[Cl-]` [CaCl2]: the “Relative activity DHAK (II) (metal cation)” value at DHAK (II) [5] came to 44%. For the same molecule, the “Metal cation ranking for DHAK (I) (in words)” value at DHAK (I) [6] (setting [12]) was “maximum activity”. For the same molecule, the “Relative activity DHAK (I) (metal cation)” value on DHAK (I) [6] turned out to be 125%.
Consider `[Cl-].[Cl-].[Co+2]` [CoCl2], for which the “Relative activity DHAK (II) (metal cation)” value at DHAK (II) [5] was found to be 22%. The “Relative activity DHAK (I) (metal cation)” value on DHAK (I) [6] is recorded as 29%.
As for `Nc1ccn([C@@H]2O[C@H](COP(=O)(O)OP(=O)(O)OP(=O)(O)O)[C@@H](O)[C@H]2O)c(=O)n1` [Cytidine 5'-triphosphate], the “Relative activity DHAK (II) (phosphate donor)” value on DHAK (II) [3] is 0%. In addition, the “Relative activity DHAK (I) (phosphate donor)” value on DHAK (I) [4] is listed as 0%.
As to `O=C(CO)CO` [DHA, dihydroxyacetone], in the data set on DHAK (II) [1], the “Relative activity DHAK (II) (substrate)” value is listed as 100% and the “Action of DHAK (II) on substrate (in words)” value is given as “act on”. Moreover, the activity at 1000 µM on DHAK (I) [2] (setting [11]) worked out at 100%.
With `O=P(O)(O)OCC(O)CO` (centres unmarked) [Glycerol-3-phosphate], in the data set with DHAK (II) [1], the “Relative activity DHAK (II) (substrate)” value amounted to 0%. The activity at 1000 µM at DHAK (I) [2] (setting [11]) turned out to be 0%.
`OCC(O)CO` [Glycerol]: the “Relative activity DHAK (II) (substrate)” value in the data set on DHAK (II) [1] is listed as 0%. Besides, on DHAK (I) [2] (setting [11]), the activity at 1000 µM stood at 0%.
On to `Nc1nc2c(ncn2[C@@H]2O[C@H](COP(=O)(O)OP(=O)(O)OP(=O)(O)O)[C@@H](O)[C@H]2O)c(=O)[nH]1` [Guanosine 5'-triphosphate], for which, at DHAK (II) [3], the “Relative activity DHAK (II) (phosphate donor)” value is 0%. The “Relative activity DHAK (I) (phosphate donor)” value at DHAK (I) [4] is given as 0%.
Take `O=P(O)(O)OP(=O)(O)OP(=O)(O)OC[C@H]1O[C@@H](n2cnc3c(O)ncnc32)[C@H](O)[C@@H]1O` [Inosine 5'-triphosphate]: at DHAK (II) [3], the “Relative activity DHAK (II) (phosphate donor)” value is reported as 0%. Besides, on DHAK (I) [4], the “Relative activity DHAK (I) (phosphate donor)” value amounted to 0%.
`O=S(=O)([O-])[O-].[Mg+2]` [MgSO4]: the “Metal cation ranking for DHAK (II) (in words)” value on DHAK (II) [5] (setting [12]) is reported as “maximum activity”. The “Mg^2+ concentration giving sufficient activity of DHAK (II)” value on DHAK (II) [5] (setting [13]) was no less than 4 mM. Moreover, on DHAK (II) [5], the “Relative activity DHAK (II) (metal cation)” value is on record as 100%. Also, the “Mg^2+ concentration giving sufficient activity of DHAK (I)” value at DHAK (I) [6] (setting [13]) is no less than 4 mM. For the same molecule, at DHAK (I) [6], the “Relative activity DHAK (I) (metal cation)” value is recorded as 100%.
For `[Cl][Mn][Cl]` [MnCl2], at DHAK (II) [5], the “Relative activity DHAK (II) (metal cation)” value came out at 9%. At DHAK (I) [6], the “Relative activity DHAK (I) (metal cation)” value came to 15%.
For `[Cl][Ni][Cl]` [NiCl2] the same measures were 0% and 0%.
Regarding `O=c1ccn([C@@H]2O[C@H](COP(=O)(O)OP(=O)(O)OP(=O)(O)O)[C@@H](O)[C@H]2O)c(=O)[nH]1` [Uridine 5'-triphosphate], the “Relative activity DHAK (II) (phosphate donor)” value at DHAK (II) [3] is recorded as 3.6%. Besides, at DHAK (I) [4], the “Relative activity DHAK (I) (phosphate donor)” value is given as 3.9%.

B1: DHAK (I) (Schizosaccharomyces pombe 972h-) (protein)
chain: T1 sequence (O13902 1-580)
notes: DHAK (I) and DHAK (II) obtained from Schizosaccharomyces pombe IFO 0354; made in house; host or cells: Schizosaccharomyces pombe IFO 0354 (natural producer, not recombinant); cell extract, DEAE-Sepharose fraction at 0.12 M KCl, then Blue-Sepharose
In the case of B1, the Km turned out to be 220 µM in data set [7], 21 µM in [8] and 8.4 µM in data set [9].
